Test results from paper PMC5318439, “The Novel Toll-Like Receptor 2 Agonist SUP3 Enhances Antigen Presentation and T Cell Activation by Dendritic Cells” (Frontiers in Immunology, 2017).
Where a SMILES comes first, the peptide text is derived from it. The star is where a group is joined. X1 = CCCCCCCCCCCCCCNC(=O)OC[C@H](C*)OC(=O)NCCCCCCCCCCCCCC; Palmitoyl = CCCCCCCCCCCCCCCC(=O)*

Columns and labels:
[1] = system: CD8^+ cDCs; assay: Cytokine production by purified CD8+ cDCs (ELISA); assay type: cell-based, mice; details: 200 nM, GM-CSF 20 ng/mL, 24 and 48 h
Protocol: (§1) Splenic DCs (5 × 10^5 cells/mL) were stimulated by Pam3 (200 nM), SUP3 (200 nM), or CpG ODN 1668 (20 nM; Adipogen IAX-200-001) in the GM-CSF (20 ng/mL) supplemented medium for indicated periods. Cell culture supernatants were harvested at indicated time points and stored at −40°C. RAW 264.7 cells and GMDCs were stimulated by lipopolysaccharide (LPS) (20 ng/mL; Adipogen IAX-100-013), Pam3, or SUP3 (both at 200 nM) for 24 h. For in vivo administration, Pam3 (2 nmol per mouse), SUP3 (2 nmol per mouse), or LPS (1 µg per mouse) were intravenously (i.v.) injected via tail veins. Serum was obtained through tail vein bleeding and centrifuged after coagulation and stored at −40°C. Cytokines (IL-6, eBioscience 88-7064; TNFα, eBioscience 88-7324; IL-12p40, BioLegend 431604), chemokine (MIP1α, R&D Systems DY450-05), and total IgM (eBioscience, 88-50470) were quantified by ELISA kits following the instructions of manufacturers.
Figure 4 SUP3 stimulated maturation of CD8^+ conventional dendritic cells (cDCs). […] The surface expression of costimulatory and major histocompatibility complex (MHC) molecules were then analyzed by flow cytometry. […] Splenic CD8^+ cDCs were enriched, and surface expression of CD40 and CD86 was analyzed by flow cytometry. […] Supernatants were harvested 24 and 48 h post-stimulation, and cytokines were measured by ELISA. […]

[2] = Serum inflammatory cytokines after i.v. administration; assay type: in vivo, mice; details: 2 nmol per mouse i.v., 1 h, ELISA
Protocol: as §1
Figure 2 SUP3 induced more vigorous cytotoxic T lymphocytes (CTLs) responses than Pam3CSK4 without excessive production of inflammatory cytokines in vivo. […] The percentages of pentamer positive cells (CD19^− CD3^+ CD8^+ SIINFEKL/H-2Kb-Pentamer^+) in spleens, i.e., the OVA-specific CD8^+ T cells, were determined by flow cytometry (A) and the statistic calculation is presented in (B). […] “n.d.” indicates “not detected.” *p < 0.05, **p < 0.01. […]

Molecule | IL-6 and TNFα production by CD8+ cDCs [1] | serum IL-6, TNFα, IL-12p40 and MIP1α levels [2]
CCCCCCCCCCCCCCCC(=O)N[C@@H](CSC[C@@H](COC(=O)NCCCCCCCCCCCCCC)OC(=O)NCCCCCCCCCCCCCC)C(=O)NCC(=O)N[C@@H](CCCCN)C(=O)N[C@@H](CCCCN)C(=O)N[C@@H](CCCCN)C(=O)O [SUP3, (2S,5S,8S,14R,18R)-2,5,8-tris(4-aminobutyl)-4,7,10,13,21-pentaoxo-14-palmitamido-18-((tetradecylcarbamoyl)oxy)-20-oxa-16-thia-3,6,9,12,22-pentaazahexatriacontan-1-oic acid] (Palmitoyl-C(X1)GKKK-OH) | only low levels | maintained at low levels
Pam3CSK4 [reference compound] | only low levels | maintained at low levels
